Assay results from US11477982B2, “2-amino-5-oxyalkyl-pyrimidine derivatives and their use for controlling undesired plant growth” (Bayer CropScience Aktiengesellschaft, priority 2017, dated 2022).

Experiments:
Format in all cases: in vivo
[1] = test system: AMARE: Amaranthus retroflexus; test: Post-emergence herbicidal effect; settings: dosage 320 g/ha
Procedure: (§1) 2. Post-Emergence Herbicidal Effect and Crop Plant Compatibility
(§2) Seeds of monocotyledonous and dicotyledonous weeds and crop plants are placed in sandy loam in plastic or wood-fiber pots, covered with soil and cultivated in a greenhouse under controlled growth conditions, 2 to 3 weeks after sowing, the test plants are treated at the one-leaf stage. The compounds of the invention, formulated in the form of wettable powders (WP) or as emulsion concentrates (EC), are then sprayed onto the green parts of the plants as aqueous suspension or emulsion with addition of 0.5% additive at a water application rate of 600 l/ha (converted). After the test plants had been kept in the greenhouse under optimum growth conditions for about 3 weeks, the activity of the preparations is rated visually in comparison to untreated controls. For example, 100% activity=the plants have died, 0% activity=like control plants.

[2] = test system: SETVI: Setaria viridis; test: Post-emergence herbicidal effect; settings: dosage 320 g/ha
Procedure: as §1, §2

[3] = test system: STEME: Stellaria media; test: Post-emergence herbicidal effect; settings: dosage 320 g/ha
Procedure: as §1, §2

[4] = test system: VIOTR: Viola tricolor; test: Post-emergence herbicidal effect; settings: dosage 320 g/ha
Procedure: as §1, §2

[5] = test system: VERPE: Veronica persica; test: Post-emergence herbicidal effect; settings: dosage 320 g/ha
Procedure: as §1, §2

[6] = test system: ABUTH: Abutilon theophrasti; test: Post-emergence herbicidal effect; settings: dosage 320 g/ha
Procedure: as §1, §2

[7] = test system: ECHCG: Echinochloa crus-galli; test: Post-emergence herbicidal effect; settings: dosage 320 g/ha
Procedure: as §1, §2

[8] = test system: HORMU: Hordeum murinum; test: Pre-emergence herbicidal effect; settings: for Herbicidal action against HORMU: pre-emergence, dosage 320 g/ha
Description: (§3) 1. Pre-Emergence Herbicidal Effect and Crop Plant Compatibility
(§4) Seeds of monocotyledonous and dicotyledonous weed plants and crop plants are placed in plastic or wood fiber pots and covered with soil. The compounds of the invention, formulated in the form of wettable powders (WP) or as emulsion concentrates (EC), are then applied onto the surface of the covering soil as aqueous suspension or emulsion with addition of 0.5% additive at a water application rate of 600 l/ha (converted).
(§5) After the treatment, the pots are placed in a greenhouse and kept under good growth conditions for the trial plants. After about 3 weeks, the effect of the preparations is scored visually in comparison with untreated controls as percentages. For example, 100% activity=the plants have died, 0% activity=like control plants.

[9] = test system: AMARE: Amaranthus retroflexus; test: Pre-emergence herbicidal effect; settings: for Herbicidal action against AMARE: pre-emergence, dosage 320 g/ha
Description: as §3, §4, §5

[10] = test system: POLCO: Polygonum convolvulus; test: Pre-emergence herbicidal effect; settings: for Herbicidal action against POLCO: dosage 320 g/ha
Description: as §3, §4, §5

[11] = test system: AVEFA: Avena fatua; test: Pre-emergence herbicidal effect; settings: dosage 320 g/ha
Description: as §3, §4, §5

[12] = test system: SETVI: Setaria viridis; test: Pre-emergence herbicidal effect; settings: for Herbicidal action against SETVI: dosage 320 g/ha
Description: as §3, §4, §5

[13] = test system: STEME: Stellaria media; test: Pre-emergence herbicidal effect; settings: for Herbicidal action against STEME: pre-emergence, dosage 320 g/ha
Description: as §3, §4, §5

[14] = test system: PHBPU: Ipomoea purpurea; test: Pre-emergence herbicidal effect; settings: for Herbicidal action against PHBPU: dosage 320 g/ha
Description: as §3, §4, §5

[15] = test system: VIOTR: Viola tricolor; test: Pre-emergence herbicidal effect; settings: dosage 320 g/ha
Description: as §3, §4, §5

[16] = test system: VERPE: Veronica persica; test: Pre-emergence herbicidal effect; settings: dosage 320 g/ha
Description: as §3, §4, §5

[17] = test system: ALOMY: Alopecurus myosuroides; test: Pre-emergence herbicidal effect; settings: for Herbicidal action against ALOMY: dosage 320 g/ha
Description: as §3, §4, §5

[18] = test system: MATIN: Matricaria inodora; test: Pre-emergence herbicidal effect; settings: for Herbicidal action against MATIN: pre-emergence, dosage 320 g/ha
Description: as §3, §4, §5

[19] = test system: ABUTH: Abutilon theophrasti; test: Pre-emergence herbicidal effect; settings: for Herbicidal action against ABUTH: dosage 320 g/ha
Description: as §3, §4, §5

[20] = test system: LOLRI: Lolium rigidum; test: Pre-emergence herbicidal effect; settings: for Herbicidal action against LOLRI: dosage 320 g/ha
Description: as §3, §4, §5

[21] = test system: ECHCG: Echinochloa crus-galli; test: Pre-emergence herbicidal effect; settings: for Herbicidal action against ECHCG: dosage 320 g/ha
Description: as §3, §4, §5

[22] = Table 4b, pre-emergence as titled, dosage 80 g of a.i./ha
[23] = Table 4a, dosage 20 g of a.i./ha
[24] = Table 4a, pre-emergence, dosage 20 g of a.i./ha

Row | Compound | Herbicidal action against AMARE [1] [%] | Herbicidal action against SETVI [2] [%] | Herbicidal action against STEME [3] [%] | Herbicidal action against VIOTR [4] [%] | Herbicidal action against VERPE [5] [%] | Herbicidal action against ABUTH [6] [%] | Herbicidal action against ECHCG [7] [%] | Herbicidal action against HORMU [8] [%] | Herbicidal action against AMARE [9] [%] | Herbicidal action against POLCO [10] [%] | Herbicidal action against AVEFA [11] [%] | Herbicidal action against SETVI ([12]; pre-emergence) [%] | Herbicidal action against STEME [13] [%] | Herbicidal action against PHBPU [14] [%] | Herbicidal action against VIOTR [15] [%] | Herbicidal action against VERPE [16] [%] | Herbicidal action against ALOMY ([17]; pre-emergence) [%] | Herbicidal action against MATIN [18] [%] | Herbicidal action against ABUTH [19] [%] | Herbicidal action against LOLRI [20] [%] | also measured
1 | Cc1ccc2c(c1)[C@H](Nc1ncc(C(C)(O)C(F)(F)F)cn1)[C@@H](C)C2 (some centres unmarked) [Example 1.11] | 100 | 100 | 100 | 90 | 90 | 90 | 100 | 100 | 100 | 100 | 100 | 100 | 100 | 80 | 100 | 100 | 100 | 100 | 100 | 100 | Herbicidal action against ECHCG ([21]; pre-emergence): 100%
2 | CCc1ccc2c(c1)[C@H](Nc1ncc(C(C)O)c(C)n1)CC2 (some centres unmarked) [Example 1.50] | 90 | 90 | 100 | 90 | 90 | 80 | 100 | 90 | 100 | 100 | 100 | 100 | 100 | 100 | 100 | 100 | 100 | 100 | 100 | 100 | Herbicidal action against ECHCG ([21]; pre-emergence): 100%
3 | CC1Cc2ccccc2C1Nc1ncc(C(C)(C)O)cn1 (mixture of isomers) [Example 1.55] | 90 | 100 | 90 | 90 | 90 | 90 | 100 | 100 | 100 | 100 | 100 | 100 | 100 | 90 | 100 | 100 | 90 | 100 | 100 | 100 | Herbicidal action against ECHCG ([21]; pre-emergence): 100%
4 | CC#CC(C)(O)c1cnc(N[C@H]2c3cc(C)ccc3C[C@@H]2C)nc1 (some centres unmarked) [Example 1.22] | 90 | 100 | 90 | 90 | 90 | 90 | 100 | 100 | 100 | 100 | 100 | 100 | 100 | 100 | 100 | 100 | 100 | 100 | 100 | 100 | Herbicidal action against ECHCG ([21]; pre-emergence): 100%
5 | CCc1ccc2c(c1)[C@H](Nc1ncc(C(C)(C)O)cn1)CC2 [Example 1.31] | 100 | 90 | 100 | 90 | 90 | 90 | 100 | 100 | 100 | 100 | 100 | 100 | 100 | 100 | 100 | 100 | 100 | 100 | 100 | 100 | Herbicidal action against ECHCG ([21]; pre-emergence): 100%
6 | CCC(C)(O)c1cnc(N[C@H]2c3cc(C)ccc3C[C@@H]2C)nc1 (some centres unmarked) [Example 1.14] | 100 | 90 | 100 | 90 | 90 | 90 | 100 | 100 | 100 | 100 | 100 | 100 | 100 | 100 | 100 | 100 | 100 | 100 | 100 | 100 | Herbicidal action against ECHCG ([21]; pre-emergence): 100%
7 | Cc1ccc2c(c1)[C@H](Nc1ncc(C(C)O)c(C)n1)CCC2 (some centres unmarked) [Example 1.48] | 90 | 90 | 90 | 80 | 90 | 80 | 100 | 100 | 100 | 100 | 90 | 100 | 100 | 90 | 100 | 100 | 100 | 100 | 100 | 100 | Herbicidal efficacy against HORMU [8, 22]: 20; Herbicidal efficacy against AMARE [9, 22]: 80; Herbicidal efficacy against POLCO [10, 23]: 100; Herbicidal efficacy against SETVI [12, 24]: 100; Herbicidal efficacy against SETVI [12, 22]: 70; Herbicidal efficacy against STEME [13, 22]: 80; Herbicidal efficacy against PHBPU [14, 23]: 70; Herbicidal efficacy against ALOMY [17, 24]: 70; Herbicidal efficacy against ALOMY [17, 22]: 50; Herbicidal efficacy against MATIN [18, 22]: 70; Herbicidal efficacy against ABUTH [19, 23]: 90; Herbicidal efficacy against LOLRI [20, 23]: 90; Herbicidal efficacy against ECHCG [21, 24]: 80; Herbicidal efficacy against ECHCG [21, 22]: 90; Herbicidal action against ECHCG ([21]; pre-emergence): 100%
